Measurements published in patent US12594293B2, “Use of 6-thio-dG to treat therapy-resistant telomerasepositive pediatric brain tumors” (The Board of Regents of The University of Texas System, priority 2018, dated 2026).

Legend:
[1] = test system: D-425; assay: Cell growth assay (viable cell count, trypan blue exclusion); type: cell-based, human
Procedure: (§1) Cell growth and sphere formation assay. After dissociating primary neurospheres by TrypLE express (Gibco), single cells were seeded in respective growth media in 6-well plates and were incubated for one week at varying concentrations (0.5 to 10 μM) of 6-thio-dG or DMSO. Fresh culture media were added every three days. Viable cell numbers were determined by trypan blue exclusion method. For sphere formation assay, MB004 single cells were seeded in limited dilution (10 cells/well in 96-well plate) and treated with DMSO or 6-thio-dG. Sphere formation was monitored by microscopy.

[2] = test system: HFF; assay: as above; type: cell-based, human
Procedure: as §1

[3] = test system: telomerase-positive cells including brain tumor cells; assay: Cell growth assay, panel of telomerase-positive cells; type: cell-based, human
Procedure: as §1

[4] = test system: HFF cells; assay: Immunofluorescence and telomere FISH (TIF) assay; type: cell-based, human
Procedure: (§2) Immunofluorescence and telomere FISH assay. Cells were fixed with 4% paraformaldehyde (PFA) for 15 minutes. Cells were then washed, permeabilized with 0.5% Triton-X-100 in PBS, blocked with 5% donkey serum and 0.3% Triton X-100 in TBS and incubated with primary antibodies against γH2A.X (1:500, rabbit), or cleaved caspase-3 (1:400, rabbit) (Cell Signaling); and/or TRF2 (1:200) (Mouse; NOVUS), as applicable, for overnight followed by TBST wash (×3) next day. Corresponding secondary antibodies were added (Alexa-Fluor 488- or 594-conjugated donkey anti-rabbit, or anti-mouse (1:500) (Jackson ImmunoResearch) for 1 hour and washed with TBS (×3) before mounting. For telomere-FISH, fixed and permeabilized cells were dehydrated with a graded ethanol concentration series, air-dried and covered with hybridization solution (70% formamide, 0.5% Blocking Reagent (Roche Diagnostics) diluted in 100 mM maleic acid and 150 mM sodium chloride, and 10 mM Tris (pH 7.5)) with 300 ng/mL PNA(CCCTAA)3-Cy3 (SEQ ID NO: 1) (Biosynthesis, USA), and denatured for 6 minutes at 84° C. followed by hybridization for at least two hours at room temperature. Cells were washed three times with 70% formamide and 10 mM Tris (pH 7.5) and three times with TBS. Finally, they were embedded with mounting media with DAPI (Vector Laboratories H1200).

[5] = test system: HFF+hTERT cells; assay: Immunofluorescence and telomere FISH (TIF) assay; type: cell-based, human
Procedure: as §2

[6] = test system: MB004 cells; assay: Immunofluorescence and telomere FISH (TIF) assay; type: cell-based, human; details: 3 μM 2 days, then 3 days continuous or discontinuous treatment
Procedure: as §2

[7] = test system: HeLa cells; assay: Cell cycle analysis (PI flow cytometry); type: cell-based, human
Procedure: (§3) Cell cycle analysis. […] Cells were then washed and stained with propidium iodide (PI) solution containing 25 μg/mL PI (Sigma), and 100 μg/mL Ribonuclease-A (Sigma) for 30 minutes in the dark. Flow cytometry was performed on BD FACS Canto II and cells were analyzed using FlowJo v.10 (FlowJo, USA) software.

[8] = test system: MB004 cells; assay: Cell cycle analysis (PI flow cytometry); type: cell-based, human; details: 3 μM for 3 days
Procedure: as §3

[9] = test system: U2OS cells; assay: Cell growth and viability after drug removal; type: cell-based, human; details: 3 mM 6-thio-dG for 3 days followed by 10-days post-drug removal (FIG. 10C)
[10] = test system: MB004 tumors
Procedure: Mouse subcutaneous and orthotopic xenograft. Athymic Ncr-nu/nu female mice (6-7 weeks old) were subcutaneously injected with 10,000 MB004 cells. Mice were weighed and distributed in two groups (control and 6-thio-dG). After tumor-establishment (day 23-24 post-implantation) with an average volume of 100-200 mm3, mice were injected intraperitoneally (i.p) every 2 days with 6-thio-dG (2.5 mg/kg) or DMSO-PBS (vehicle) for 3-4 weeks until euthanization. Tumors were measured by slide calipers taking two longest tumor-diameters (length and width) perpendicular to each other and volumes were calculated by using the formula: (π/6)×d3, where d=mean diameter. For orthotopic xenograft, CCHMC-DIPG-1 luciferase-positive cells (10,000) were injected in the brain of NRG (NOD.Cg-Rag1tm1Mom Il2rgtm1Wjl/SzJ) mice. Briefly, mice were injected stereotactically with 2 μl medium containing 10,000 luciferase-positive cells. The coordinates for injection were 0.8-1 mm posterior to lambda suture and 3.5 mm deep, corresponding to the pons location in the brain. Tumors were visualized by luminescence using IVIS Spectrum CT in vivo imaging system (PerkinElmer). All animal procedures were approved by the Institutional Animal Care and Use Committee (IACUC) (protocol #IACUC2015-0066, CCHMC).
Immunohistochemistry. Formalin-fixed paraffin-embedded (FFPE) sections were deparaffinized in xylene followed by rehydration through a graded ethanol concentration series. Heat-induced antigen retrieval was performed by steaming slides for 20 minutes in 10 mM Citrate buffer (pH 6.0). […] Slides were washed with TBST (×3) and were treated with biotinylated anti-rabbit secondary antibody (1:500) and signal-amplified using ABC Kit (Vector Laboratories). Signal was visualized with DAB (Vector Laboratories) and counterstained with Harris Hematoxylin (Sigma). H & E staining was performed using hematoxylin-1 and eosin-Y (Thermo Scientific). Tissues were mounted with Permount (Fisher Scientific) and imaged by Nikon eclipse 80i microscope.
Tissue TIF assay. Tissue samples were pre-fixed with 4% PFA and were cryo-protected in 25% sucrose/PBS solution, then embedded in OCT freezing molds with Neg-50 (VWR) in acetone and dry ice followed by cryo-sectioning. Heat-induced antigen retrieval and Telomere-FISH was performed as described above. The samples were incubated in blocking solution (5% donkey serum, 0.3% Triton X-100 in TBS) for 30 minutes and treated with anti-53BP1 (rabbit 1:500; Novus Biologicals) for 1 hour at room temperature. After washing in TBST (×3), the samples were incubated with secondary antibody Alexa-Fluor 488-conjugated donkey anti-rabbit (1:400; Jackson ImmunoResearch), and washed in TBS (×3). The samples were embedded in mounting media with DAPI (Vector Laboratories H1200). Images were captured with 60× oil objective on Nikon Eclipse Ti confocal microscope.

[11] = 2.5 mg/kg i.p. every 2 days for 3-4 weeks
[12] = 2.5 mg/kg i.p. every 2 days, vs untreated group

Nc1nc2c(ncn2[C@H]2C[C@H](O)[C@@H](CO)O2)c(=S)[nH]1 [6-thio-dG, 6-thio-2′-deoxyguanosine]
cell growth ([1]; 0.5-10 μM for one week, cells at diagnosis): effectively inhibited cell growth | IC50 ([1]; Homo sapiens, 168 h, 6-thio-dG treatment for 7 days, D-425 (primary)): 1380 nM | IC50 ([2]; Homo sapiens, 168 h, 6-thio-dG treatment for 7 days, HFF (telomerase-negative)): 7900 nM | cell growth ([2]; up to 3 μM, one week): minor to no effect | cell growth ([3]; 0.5 to 10 μM every three days for one week): inhibited cell growth in a dose-dependent manner | IC50 ([3]; Homo sapiens, all telomerase-positive cells including brain tumor cells (Table S2)): 140 to 1450 nM | TIF formation (cells with TIFs) ([4]; 3 μM, after 2 or 5 days treatment): less than 3% | TIFs after drug withdrawal ([4]; 3 days after drug withdrawal): completely disappeared | cells TIF-positive ([5]; 3 μM 2 days, then 3 days after drug withdrawal): ~31% | cells TIF-positive ([5]; 3 μM, 5 days continuous treatment): ~34% | number of cells with TIFs ([5]; 3 μM, after two days): ~25% | number of TIFs per cell and number of cells with TIFs ([5]; 3 μM, from day 1 to day 3): markedly increased | TIF formation [6]: sustained TIF formation | effect on cell cycle progression after drug removal ([7]; 3 μM 3 days, then drug removed): persisted several days after drug withdrawal | cell cycle progression ([7]; 3 μM, three days): caused G2/M arrest | cell cycle populations ([7]; continuous treatment, 3 μM): sharp increase in G2/M, >4n and sub-G1 cell populations | cell cycle populations [8]: increase in sub-G1 and G2/M cell populations | cell death / viability [9]: predominantly did not die | in-tumor cells with at least 1-3 TIFs ([10]; 2.5 mg/kg i.p. every 2 days): More than 21% | population of cells with 4-6 TIFs per cell ([10]; 2.5 mg/kg i.p. every 2 days): detected only in treated tumors | treated mice with fast tumor growth [10, 11]: Two out of six | treated mice with reduced or delayed tumor growth [10, 11]: Four out of six | in-tumor apoptosis (cleaved caspase-3 IHC) ([10]; 2.5 mg/kg i.p. every 2 days, vs control group): significant increase in apoptosis | apoptotic bodies (H & E) [10, 12]: increase in apoptotic bodies | number of mitotic figures (H & E) [10, 12]: significant decrease | probability of animal survival ([10]; upon reaching tumor volume of 1500 mm^3, vs vehicle group): significantly higher
